Measured values from patent US8513227B2, “Inhibition of inflammatory cytokine production with tanshinones” (The Feinstein Institute for Medical Research, priority 2006, dated 2013).
Where two headings read alike, the source gives them in different places.

Key:
[1] = tested on: HMGB1; assay: LPS-induced HMGB1 release in RAW 264.7 macrophage cultures (western blot); assay type: cell-based, murine; details: for IC50: Mus musculus, read-out: estimated IC50 for LPS-induced HMGB1 release
Excerpt: Cell culture. […] Rendon-Mitchell et al. 2003). Murine macrophages were pre-cultured in RPMI 1640 medium (Gibco BRL, Grand Island, N.Y.) supplemented with 10% fetal bovine serum (FBS) and 2 mmol/L glutamine. Human peripheral blood mononuclear cells (HuPBMCs) were isolated from the blood of healthy donors (Long Island Blood Bank, Melville, N.Y.) by density gradient centrifugation through Ficoll (Ficoll-Paque PLUS, Pharmacia, Piscataway, N.J.), and cultured in RPMI 1640 supplemented with 10% heat-inactivated human serum/0.2 mM L-glutamine as previously described (Rendon-Mitchell et al. 2003). LPS stimulation. Adherent macrophages or monocytes were gently washed with, and cultured in, serum-free OPTI-MEM I medium two hours before stimulation with bacterial endotoxin (lipopolysaccharide, LPS, E. coli 0111:B4, Sigma-Aldrich). […] Rendon-Mitchell et al. 2003; Wang et al. 1999). HMGB1 western blotting analysis. The levels of HMGB1 in the culture medium or serum were determined by western blotting analysis as previously described (Chen et al. 2004; Rendon-Mitchell et al. 2003; Wang et al. 1999). The relative band intensity was quantified using NIH image 1.59 software to determine HMGB1 levels with reference to standard curves generated with purified HMGB1.

[2] = biological target: acetylcholinesterase (Homo sapiens, UniProt P22303); details: literature; cited from earlier work
[3] = tested on: nitric oxide; details: Wang et al. 2006; cited from earlier work
[4] = tested on: HMGB1; details: Wang et al. 2006; cited from earlier work
[5] = tested on: TNF; assay: LPS-mediated TNF secretion in RAW 264.7 macrophages (ELISA); assay type: cell-based, murine; details: concentrations up to 10 μM, FIG. 5C
Protocol: Cell culture. Murine macrophage-like RAW 264.7 cells were obtained from the American Type Culture Collection (ATCC, Rockville, Md.), and primary peritoneal macrophages were isolated from Balb/C mice (male, 7-8 weeks, 20-25 grams) at 2-3 days after intraperitoneal injection of 2 ml thioglycollate broth (4%) as previously described (Chen et al. 2004; Rendon-Mitchell et al. 2003). Murine macrophages were pre-cultured in RPMI 1640 medium (Gibco BRL, Grand Island, N.Y.) supplemented with 10% fetal bovine serum (FBS) and 2 mmol/L glutamine. Human peripheral blood mononuclear cells (HuPBMCs) were isolated from the blood of healthy donors (Long Island Blood Bank, Melville, N.Y.) by density gradient centrifugation through Ficoll (Ficoll-Paque PLUS, Pharmacia, Piscataway, N.J.), and cultured in RPMI 1640 supplemented with 10% heat-inactivated human serum/0.2 mM L-glutamine as previously described (Rendon-Mitchell et al. 2003). LPS stimulation. […] The levels of TNF in the culture medium or serum were determined using commercial enzyme linked immunosorbent assay (ELISA) kits (Catalog no. MTA00, R & D Systems, Minneapolis, Minn.) with reference to standard curves of purified recombinant TNF at various dilutions as previously described (Chen et al. 2004; Rendon-Mitchell et al. 2003; Wang et al. 2006).

[6] = tested on: lethal sepsis; assay: Lethal sepsis induced by cecal ligation and puncture (CLP) in Balb/C mice; assay type: in vivo; details: 12 mg/kg, repeated at 24, 48, 72, 96 hours post onset; vehicle 50%; N=14, p>0.05
Protocol: Animal models of endotoxemia and sepsis. This study was approved and performed in accordance with the guidelines for the care and use of laboratory animals at the Feinstein Institute for Medical Research, Manhasset, N.Y. Endotoxemia was induced in Balb/C mice (male, 7-8 weeks) by intraperitoneal injection of bacterial endotoxin (LPS, 15 mg/kg) as previously described (Chen et al. 2005; Wang et al. 1999; Wang et al. 2006). Sepsis was induced in male Balb/C mice (7-8 weeks, 20-25 g) or Sprague-Dawley rats (290-310 g) by cecal ligation and puncture (CLP) as previously described (Wang et al. 2006; Yang et al. 2002b). Herbal components were administered intraperitoneally into mice at indicated doses and time points, and mice were monitored for survival for up to two weeks. In parallel experiments, mice were euthanized to collect blood at 28 h (following two doses of herbal components at −0.5 and +24 h) after endotoxemia, and at 52 h (following two doses of herbal components at +24 and +48 h) after CLP.
TNF ELISA. The levels of TNF in the culture medium or serum were determined using commercial enzyme linked immunosorbent assay (ELISA) kits (Catalog no. MTA00, R & D Systems, Minneapolis, Minn.) with reference to standard curves of purified recombinant TNF at various dilutions as previously described (Chen et al. 2004; Rendon-Mitchell et al. 2003; Wang et al. 2006).
Nitric oxide assay. The levels of nitric oxide in the culture medium were determined indirectly by measuring NO^2− production with a colorimetric assay based on the Griess reaction (Rendon-Mitchell et al. 2003). NO2-concentrations were determined with reference to a standard curve generated with sodium nitrite at various dilutions.
HMGB1 western blotting analysis. The levels of HMGB1 in the culture medium or serum were determined by western blotting analysis as previously described (Chen et al. 2004; Rendon-Mitchell et al. 2003; Wang et al. 1999). The relative band intensity was quantified using NIH image 1.59 software to determine HMGB1 levels with reference to standard curves generated with purified HMGB1.
Tissue histology. At 48 hours after CLP, mice were euthanized in CO2 Chamber, and immediately perfused (transcardially) with phosphate buffer saline and 4% paraformaldehyde. Various tissues were harvested, sectioned, and stained with hematoxylin and eosin for morphology evaluation.

[7] = tested on: phospholipase A2; details: Kim et al. 2002; cited from earlier work
[8] = superpharmacological concentrations (1-25 μM), data not shown
[9] = RAW264.7, RAW 264.7 cells, 16 h after LPS, western blot, estimated

Sequence of acetylcholinesterase (P22303 32-614, species assumed): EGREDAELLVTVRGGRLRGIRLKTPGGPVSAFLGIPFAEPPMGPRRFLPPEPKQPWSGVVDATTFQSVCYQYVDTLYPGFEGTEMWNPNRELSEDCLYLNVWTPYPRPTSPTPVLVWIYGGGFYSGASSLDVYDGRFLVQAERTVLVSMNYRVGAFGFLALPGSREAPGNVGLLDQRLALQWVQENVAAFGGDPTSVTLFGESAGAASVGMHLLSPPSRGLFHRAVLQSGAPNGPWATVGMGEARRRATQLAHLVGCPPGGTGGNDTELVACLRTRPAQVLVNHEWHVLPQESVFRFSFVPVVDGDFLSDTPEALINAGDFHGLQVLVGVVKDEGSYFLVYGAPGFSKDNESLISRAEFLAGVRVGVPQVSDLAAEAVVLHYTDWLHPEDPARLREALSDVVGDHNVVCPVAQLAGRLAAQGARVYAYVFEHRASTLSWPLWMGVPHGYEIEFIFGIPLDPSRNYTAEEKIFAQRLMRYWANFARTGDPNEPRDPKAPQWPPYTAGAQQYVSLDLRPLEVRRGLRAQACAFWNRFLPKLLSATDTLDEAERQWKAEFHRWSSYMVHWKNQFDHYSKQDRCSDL

CC1COC2=C1C(=O)C(=O)c1c2ccc2c1CCCC2(C)C (centres unmarked) [cryptotanshinone, 1,6,6-Trimethyl-1,2,6,7,8,9-hexahydro-phenanthro[1,2-b]furan-10,11-dione]
IC50 ([1]; RAW264.7, 16 h): < 25 µM
inhibition of acetylcholinesterase [2]: can inhibit

CC(C)Cc1ccc(C(C)C(=O)O)cc1 (centres unmarked) [ibuprofen]
effect on LPS-induced HMGB1 release [1, 8]: None of the tested cyclooxygenase inhibitors (e.g., aspirin, ibuprofen, and indomethacin) significantly affected

COc1cc(/C=C/C(=O)O)ccc1O [ferulic acid]
effect on LPS-induced nitric oxide production [3]: effectively attenuated
effect on LPS-induced HMGB1 release [4]: failed to affect

C[C@]12CCC(=O)C=C1CC[C@@H]1[C@@H]2C(=O)C[C@@]2(C)[C@H]1CC[C@]2(O)C(=O)CO [cortisone]
effect on LPS-induced HMGB1 release ([1]; concentrations up to 10 μM, FIG. 5B): failed to reduce
effect on LPS-mediated TNF secretion [5]: effectively attenuated

Cc1coc2c1C(=O)C(=O)c1c-2ccc2c1CCCC2(C)C [tanshinone IIA, 1,6,6-Trimethyl-6,7,8,9-tetrahydro-phenanthro[1,2-b]furan-10,11-dione]
IC50 [1, 9]: < 25 µM
survival rate, lethal sepsis [6]: 61%

CC(=O)Oc1ccccc1C(=O)O [aspirin]
effect on LPS-induced HMGB1 release [1, 8]: None of the tested cyclooxygenase inhibitors (e.g., aspirin, ibuprofen, and indomethacin) significantly affected

Cc1coc2c1C(=O)C(=O)c1c-2ccc2c(C)cccc12 [tanshinone I]
IC50 [1, 9]: < 25 µM
survival rate, lethal sepsis [6]: 57%
inhibition of phospholipase A2 [7]: can inhibit

COc1ccc2c(c1)c(CC(=O)O)c(C)n2C(=O)c1ccc(Cl)cc1 [indomethacin]
effect on LPS-induced HMGB1 release [1, 8]: None of the tested cyclooxygenase inhibitors (e.g., aspirin, ibuprofen, and indomethacin) significantly affected
